Measurements reported in ChEMBL document CHEMBL6087451, “Design, Synthesis, and Biological Evaluation of 2-Arylaminopyrimidine Derivatives as Dual Cathepsin L and JAK Inhibitors for the Treatment of Acute Lung Injury” (J Med Chem, 2025).
Activity calls are given as the source filed them. No cut-off for these calls is given here.

Experiments:
[1] = Anti-inflammatory activity against HBE cells assessed as inhibition of LPS-induced IL-8 level at 5 uM pretreated for 30 mins followed by LPS treatment for 24 hrs by ELISA relative to control; assay type: functional; conditions: Homo sapiens, time 24.5 hrs
[2] = Anti-inflammatory activity against HBE cells assessed as inhibition of LPS-induced IL-6 level at 5 uM pretreated for 30 mins followed by LPS treatment for 24 hrs by ELISA relative to control; assay type: functional; conditions: Homo sapiens, time 24.5 hrs
RAW264.7 [3] = test: Anti-inflammatory activity against mouse RAW264.7 cells assessed as inhibition of LPS-induced IL-6 level
RAW264.7 [4] = test: Anti-inflammatory activity against mouse RAW264.7 cells assessed as inhibition of LPS-induced IL-1beta level
Procathepsin L [5] = target: T1, Procathepsin L (Homo sapiens, UniProt P07711); test: Inhibition of CTSL maturation in HBE cells pretreated for 30 mis followed by LPS treatment for 16 hrs by Western blot analysis; assay type: cell-based; conditions: dose 0.5-5 µM, time 16.5 hrs
Target sequence in this assay (P07711 114-333 limits assumed): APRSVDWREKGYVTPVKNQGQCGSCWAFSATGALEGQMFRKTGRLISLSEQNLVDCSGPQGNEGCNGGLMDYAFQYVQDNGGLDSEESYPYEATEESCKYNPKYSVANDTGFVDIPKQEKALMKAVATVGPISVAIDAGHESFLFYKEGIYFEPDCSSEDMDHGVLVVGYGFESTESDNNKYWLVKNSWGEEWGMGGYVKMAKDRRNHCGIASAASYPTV

Procathepsin L [6] = target: T1, Procathepsin L; test: Induction of thermal stabilization of pro-CTSL in protein lysate extracted from human THP-1 cells pretreated for 6 hrs followed by heat exposure at 37 to 62 degreeC for 3 mins by CETSA; assay type: subcellular; conditions: time 363.0 min
Target sequence in this assay (P07711 114-333 limits assumed): as above

Procathepsin L [7] = target: T1, Procathepsin L; test: Inhibition of recombinant human Cat L using f Z-Phe-Arg-AMC as substrate preincubated for 30 mins followed by substrate addition
Target sequence in this assay (P07711 whole entry): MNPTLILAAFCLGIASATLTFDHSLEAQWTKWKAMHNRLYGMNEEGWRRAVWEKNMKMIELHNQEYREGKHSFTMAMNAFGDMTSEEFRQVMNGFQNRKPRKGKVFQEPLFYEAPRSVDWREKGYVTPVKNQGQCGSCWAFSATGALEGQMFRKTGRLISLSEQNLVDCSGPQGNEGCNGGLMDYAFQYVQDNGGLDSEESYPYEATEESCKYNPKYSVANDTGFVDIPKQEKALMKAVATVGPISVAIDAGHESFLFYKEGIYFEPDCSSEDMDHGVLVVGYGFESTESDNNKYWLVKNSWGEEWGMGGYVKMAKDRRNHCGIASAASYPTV

HBE [8] = test: Anti-inflammatory activity against HBE cells assessed as inhibition of LPS-induced p-Ikappa-Balpha level pretreated for 30 mis followed by LPS treatment for 16 hrs by Western blot analysis; assay type: functional, cell-based; conditions: Homo sapiens, dose 0.5-5 µM, time 16.5 hrs
HBE [9] = test: Anti-inflammatory activity against HBE cells assessed as inhibition of LPS-induced p-p65 level pretreated for 30 mis followed by LPS treatment for 16 hrs by Western blot analysis; assay type: functional, cell-based; conditions: Homo sapiens, dose 0.5-5 µM, time 16.5 hrs
RAW264.7 [10] = test: Cytotoxicity against mouse RAW264.7 cells assessed as cell viability at 0.5 to 5 uM; assay type: toxicity, cell-based; conditions: raw264.7, 5 µM, dose 0.5-5 µM
RAW264.7 [11] = test: Anti-inflammatory activity against mouse RAW264.7 cells assessed as inhibition of LPS-induced IL-1beta level at 50 to 500 nM; assay type: functional, cell-based; conditions: dose 50-500 nM
RAW264.7 [12] = test: Anti-inflammatory activity against mouse RAW264.7 cells assessed as inhibition of LPS-induced IL-6 mRNA level at 50 to 500 nM by RT-qPCR analysis; assay type: functional, cell-based; conditions: dose 50-500 nM
RAW264.7 [13] = test: Anti-inflammatory activity against mouse RAW264.7 cells assessed as inhibition of LPS-induced IL-1beta mRNA level at 50 to 500 nM by RT-qPCR analysis; assay type: functional, cell-based; conditions: dose 50-500 nM
RAW264.7 [14] = test: Anti-inflammatory activity against mouse RAW264.7 cells assessed as inhibition of LPS-induced TNF-alpha mRNA level at 50 to 500 nM by RT-qPCR analysis; assay type: functional, cell-based; conditions: dose 50-500 nM
RAW264.7 [15] = test: Anti-inflammatory activity against mouse RAW264.7 cells assessed as inhibition of LPS-induced p38 phosphorylation at 50 to 500 nM by Western blot analysis; assay type: functional, cell-based; conditions: dose 50-500 nM
RAW264.7 [16] = test: Anti-inflammatory activity against mouse RAW264.7 cells assessed as inhibition of LPS-induced iNOS level by Western blot analysis; assay type: functional, cell-based; conditions: dose 50-500 nM
RAW264.7 [17] = test: Anti-inflammatory activity against mouse RAW264.7 cells assessed as inhibition of LPS-induced COX-2 level by Western blot analysis; assay type: functional, cell-based; conditions: dose 50-500 nM
Mus musculus [18] = test: (§1) Anti-inflammatory activity in C57BL/6 mouse model of LPS-induced acute lung injury assessed as decrease in pulmonary edema in lung at 10 mg/kg, ip treated for 3 days followed by LPS treatment after 1 hr post-compound administration on fourth day measured after 18 hrs post-LPS treatment by H and E staining based analysis; assay type: functional, organism-based; conditions: time 91.0 hrs
Mus musculus [19] = test: as §1, with “alveolar hemorrhage” for “pulmonary edema”; assay type: functional, organism-based; conditions: time 91.0 hrs
Mus musculus [20] = test: as §1, with “inflammatory cell infiltration” for “pulmonary edema”; assay type: functional, organism-based; conditions: time 91.0 hrs
Mus musculus [21] = test: as §1, with “disruption of epithelial cell structures” for “pulmonary edema”; assay type: functional, organism-based; conditions: time 91.0 hrs
Mus musculus [22] = test: as §1, with “disruption of endothelial cell structures” for “pulmonary edema”; assay type: functional, organism-based; conditions: time 91.0 hrs
Mus musculus [23] = test: (§2) Anti-inflammatory activity in C57BL/6 mouse model of LPS-induced acute lung injury assessed as decrease in wet to dry ratio in lung at 10 mg/kg, ip treated for 3 days followed by LPS treatment after 1 hr post-compound administration on fourth day measured after 18 hrs post-LPS treatment; assay type: functional, organism-based; conditions: time 91.0 hrs
Mus musculus [24] = test: Anti-inflammatory activity in C57BL/6 mouse model of LPS-induced acute lung injury assessed as decrease in number of total cells in BALF at 10 mg/kg, ip treated for 3 days followed by LPS treatment after 1 hr post-compound administration on fourth day measured after 18 hrs post-LPS treatment; assay type: functional, organism-based; conditions: time 91.0 hrs
Mus musculus [25] = test: Anti-inflammatory activity in C57BL/6 mouse model of LPS-induced acute lung injury assessed as decrease in total protein concentration in BALF at 10 mg/kg, ip treated for 3 days followed by LPS treatment after 1 hr post-compound administration on fourth day measured after 18 hrs post-LPS treatment; assay type: functional, organism-based; conditions: time 91.0 hrs
Mus musculus [26] = test: as §2, with “decrease in TNF-alpha mRNA level in lung” for “decrease in wet to dry ratio in lung”, “post-LPS treatment by RT-qPCR analysis” for “post-LPS treatment”; assay type: functional, organism-based; conditions: time 91.0 hrs
Mus musculus [27] = test: as §2, with “decrease in IL-6 mRNA level in lung” for “decrease in wet to dry ratio in lung”, “post-LPS treatment by RT-qPCR analysis” for “post-LPS treatment”; assay type: functional, organism-based; conditions: time 91.0 hrs
Mus musculus [28] = test: as §2, with “decrease in IL-1beta mRNA level in lung” for “decrease in wet to dry ratio in lung”, “post-LPS treatment by RT-qPCR analysis” for “post-LPS treatment”; assay type: functional, organism-based; conditions: time 91.0 hrs
Mus musculus [29] = test: In vivo inhibition of mature CTSL in lung of C57BL/6 mouse model of LPS-induced acute lung injury at 10 to 20 mg/kg, ip treated for 3 days followed by LPS treatment after 1 hr post-compound administration on fourth day measured after 18 hrs post-LPS treatment by Western blot analysis; assay type: functional, organism-based; conditions: dose 10-20 mg/kg, time 91.0 hrs
[30] = AUC (0 to t) in Sprague-Dawley rat at 3.5 mg/kg, iv measured for 24 hrs by LC-MS/MS analysis; assay type: ADME, organism-based; conditions: in vivo
[31] = AUC (0 to infinity) in Sprague-Dawley rat at 3.5 mg/kg, iv measured for 24 hrs by LC-MS/MS analysis; assay type: ADME, organism-based; conditions: in vivo
[32] = Half life in Sprague-Dawley rat at 3.5 mg/kg, iv measured for 24 hrs by LC-MS/MS analysis; assay type: ADME, organism-based; conditions: in vivo
[33] = Cmax in Sprague-Dawley rat at 3.5 mg/kg, iv measured for 24 hrs by LC-MS/MS analysis; assay type: ADME, organism-based; conditions: in vivo
[34] = AUC (0 to t) in Sprague-Dawley rat at 3.5 mg/kg, ip measured for 24 hrs by LC-MS/MS analysis; assay type: ADME, organism-based; conditions: in vivo
[35] = AUC (0 to infinity) in Sprague-Dawley rat at 3.5 mg/kg, ip measured for 24 hrs by LC-MS/MS analysis; assay type: ADME, organism-based; conditions: in vivo
[36] = Half life in Sprague-Dawley rat at 3.5 mg/kg, ip measured for 24 hrs by LC-MS/MS analysis; assay type: ADME, organism-based; conditions: in vivo
[37] = Cmax in Sprague-Dawley rat at 3.5 mg/kg, ip measured for 24 hrs by LC-MS/MS analysis; assay type: ADME, organism-based; conditions: in vivo
[38] = AUC (0 to t) in Sprague-Dawley rat at 3.5 mg/kg, po measured for 24 hrs by LC-MS/MS analysis; assay type: ADME, organism-based; conditions: in vivo
[39] = AUC (0 to infinity) in Sprague-Dawley rat at 3.5 mg/kg, po measured for 24 hrs by LC-MS/MS analysis; assay type: ADME, organism-based; conditions: in vivo
[40] = Half life in Sprague-Dawley rat at 3.5 mg/kg, po measured for 24 hrs by LC-MS/MS analysis; assay type: ADME, organism-based; conditions: in vivo
[41] = Cmax in Sprague-Dawley rat at 3.5 mg/kg, po measured for 24 hrs by LC-MS/MS analysis; assay type: ADME, organism-based; conditions: in vivo
[42] = Oral bioavailability in Sprague-Dawley rat at 3.5 mg/kg measured for 24 hrs by LC-MS/MS analysis; assay type: ADME, organism-based; conditions: in vivo
cells [43] = conditions: Homo sapiens, HBE
Description: Anti-inflammatory activity against HBE cells assessed as inhibition of LPS-induced IL-6 level pretreated for 30 mins followed by LPS treatment for 24 hrs by ELISA

cells [44] = conditions: Homo sapiens, HBE; remark: listed apart in the source
Description: Anti-inflammatory activity against HBE cells assessed as inhibition of LPS-induced IL-8 level pretreated for 30 mins followed by LPS treatment for 24 hrs by ELISA

With `Cc1ccc(Nc2nccc(-c3cn(C)c4ccccc34)n2)cc1N.Cl` the inhibition at 5 µM [1] was 76%, the inhibition at 5 µM [2] was 69% and the IC50 (RAW264.7 [3]) was 144 nM. For the same molecule, the IC50 (RAW264.7 [4]) was 480 nM, the inhibition (Procathepsin L [5]) was “Dose-dependent-effect” and the Activity (Procathepsin L [6]) was “Active”. The IC50 (Procathepsin L [7]) was 820 nM, the inhibition (HBE [8]) was “Dose-dependent-effect” and the inhibition (HBE [9]) was “Dose-dependent-effect”. The Activity (RAW264.7 [10]) was “Non-toxic”, the inhibition (RAW264.7 [11]) was “Active” and the inhibition (RAW264.7 [12]) was “Active”. For the same molecule, the inhibition (RAW264.7 [13]) was “Active”, the inhibition (RAW264.7 [14]) was “Active” and the inhibition (RAW264.7 [15]) was “Active; Result Indicates Compound Suppresses Mapk Pathway”. For the same molecule, the inhibition (RAW264.7 [16]) was “Dose-dependent-effect”, the inhibition (RAW264.7 [17]) was “Dose-dependent-effect” and the Activity (Mus musculus [18]) was “Active”. The Activity (Mus musculus [19]) was “Active”, the Activity (Mus musculus [20]) was “Active” and the Activity (Mus musculus [21]) was “Active”. The Activity (Mus musculus [22]) was “Active”, the Activity (Mus musculus [23]) was “Active” and the Activity (Mus musculus [24]) was “Active”. For the same molecule, the Activity (Mus musculus [25]) was “Active”, the Activity (Mus musculus [26]) was “Active” and the Activity (Mus musculus [27]) was “Active”. The Activity (Mus musculus [28]) was “Active”, the inhibition (Mus musculus [29]) was “Active” and the AUC(0-t) at 24 h [30] was 1630 ng·h/mL. The AUC(0-inf) [31] was 1690 ng·h/mL, the half-life [32] was 5.06 h and the Cmax [33] was 504 ng/mL. For the same molecule, the AUC(0-t) at 24 h [34] was 1510 ng·h/mL, the AUC(0-inf) [35] was 1580 ng·h/mL and the half-life [36] was 5.19 h. For the same molecule, the Cmax [37] was 331 ng/mL, the AUC(0-t) at 24 h [38] was 830 ng·h/mL and the AUC(0-inf) [39] was 1050 ng·h/mL. For the same molecule, the half-life [40] was 6.48 h, the Cmax [41] was 193 ng/mL and the bioavailability [42] was 51.1%. For the same molecule, the IC50 (cells [43]) was 1070 nM and the IC50 (cells [44]) was 2080 nM.
